# Measured values: ChEMBL document CHEMBL1909046, “DrugMatrix in vitro pharmacology data”
# How the values were obtained:
# [1] = molecular target: Matrix metalloproteinase-9 (Homo sapiens, UniProt P14780); format: cell-based;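 also: inhibition of isolated MMP-9 enzyme activity toward a synthetic peptide substrate, from the DrugMatrix protease screening panel; in other assays of this panel Not Active means under 50% inhibition at 10 µM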
# [2] = DRUGMATRIX: Purinergic P2X radioligand binding (ligand: [3H] alpha, beta-Methylene-ATP); format: cell membranes, Oryctolagus cuniculus, New Zealand albino, Urinary bladder, Membrane; details: Not Active = under 50% inhibition at 10 µM
# [3] = molecular target: Protein kinase C alpha type (Homo sapiens, UniProt P17252); format: cell-based; details: sf9;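 also: inhibition of PKCalpha kinase activity measured in an enzyme assay with histone as the phosphorylation substrate; in other assays of this panel Not Active means under 50% inhibition at 10 µM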
# [4] = molecular target: Epidermal growth factor receptor (Homo sapiens, UniProt P00533); experiment: DRUGMATRIX: Protein Tyrosine Kinase, EGF Receptor enzyme inhibition (substrate: Poly(Glu:Tyr)); format: cell-based, Insect cells; details: Not Active = under 50% inhibition at 10 µM
# [5] = molecular target: T1, Muscarinic acetylcholine receptor M4 (Homo sapiens, UniProt P08173); format: cell membranes, CHO-K1, Membrane; details: cho-k1; also: in other assays of this panel Not Active means under 50% inhibition at 10 µM
# T1 sequence (P08173 whole entry): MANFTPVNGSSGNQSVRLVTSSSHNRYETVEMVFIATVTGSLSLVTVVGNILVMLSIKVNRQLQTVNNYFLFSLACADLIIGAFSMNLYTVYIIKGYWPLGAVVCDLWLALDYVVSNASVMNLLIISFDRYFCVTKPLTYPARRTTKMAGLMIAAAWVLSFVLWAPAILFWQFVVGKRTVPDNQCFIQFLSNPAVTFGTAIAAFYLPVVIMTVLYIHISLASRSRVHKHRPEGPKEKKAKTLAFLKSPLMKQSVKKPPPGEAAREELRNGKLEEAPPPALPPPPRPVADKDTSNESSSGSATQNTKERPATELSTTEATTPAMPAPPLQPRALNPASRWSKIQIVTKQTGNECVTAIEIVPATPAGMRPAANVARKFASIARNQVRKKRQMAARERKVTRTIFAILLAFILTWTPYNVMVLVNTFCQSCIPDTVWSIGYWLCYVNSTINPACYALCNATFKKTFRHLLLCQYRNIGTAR
# [6] = molecular target: T2, Nitric oxide synthase, inducible (Mus musculus, UniProt P29477); design: species or system Escherichia coli;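 also: inhibition of iNOS enzyme activity measured with L-arginine as substrate; in other assays of this panel Not Active means under 50% inhibition at 10 µM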
# T2 sequence (P29477 whole entry): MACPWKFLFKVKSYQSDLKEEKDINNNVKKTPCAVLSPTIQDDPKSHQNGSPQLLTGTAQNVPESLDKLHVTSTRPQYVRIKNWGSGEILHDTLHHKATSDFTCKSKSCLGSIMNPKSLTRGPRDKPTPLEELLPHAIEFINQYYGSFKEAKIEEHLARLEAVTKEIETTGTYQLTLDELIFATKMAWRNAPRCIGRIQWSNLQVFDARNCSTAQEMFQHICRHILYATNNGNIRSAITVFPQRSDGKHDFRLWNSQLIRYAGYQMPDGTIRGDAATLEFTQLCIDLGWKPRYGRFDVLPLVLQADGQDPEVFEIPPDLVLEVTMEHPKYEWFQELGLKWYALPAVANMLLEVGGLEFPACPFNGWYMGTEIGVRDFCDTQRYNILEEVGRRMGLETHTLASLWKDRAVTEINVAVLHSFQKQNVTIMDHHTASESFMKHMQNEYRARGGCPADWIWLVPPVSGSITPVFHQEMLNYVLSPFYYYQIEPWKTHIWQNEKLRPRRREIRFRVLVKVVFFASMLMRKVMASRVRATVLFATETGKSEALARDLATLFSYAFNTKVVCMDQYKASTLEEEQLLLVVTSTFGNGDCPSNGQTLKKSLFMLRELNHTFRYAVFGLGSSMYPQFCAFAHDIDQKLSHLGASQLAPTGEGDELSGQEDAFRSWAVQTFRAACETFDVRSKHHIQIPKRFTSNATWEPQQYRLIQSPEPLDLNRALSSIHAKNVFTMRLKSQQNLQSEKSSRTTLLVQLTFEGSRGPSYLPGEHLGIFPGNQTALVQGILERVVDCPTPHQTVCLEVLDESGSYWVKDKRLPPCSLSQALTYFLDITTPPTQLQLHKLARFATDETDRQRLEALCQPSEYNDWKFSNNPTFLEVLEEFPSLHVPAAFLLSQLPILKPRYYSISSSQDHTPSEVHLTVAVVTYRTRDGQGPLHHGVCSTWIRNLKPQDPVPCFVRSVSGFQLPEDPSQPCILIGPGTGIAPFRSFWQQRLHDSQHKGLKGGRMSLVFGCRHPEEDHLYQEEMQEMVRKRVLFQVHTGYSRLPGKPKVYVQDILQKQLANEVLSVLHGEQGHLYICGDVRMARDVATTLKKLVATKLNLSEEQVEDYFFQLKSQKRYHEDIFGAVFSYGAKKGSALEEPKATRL
# [7] = DRUGMATRIX: Phosphodiesterase PDE3 enzyme inhibition (substrate: [3H]cAMP + cAMP); format: tissue-based, Homo sapiens; details: platelet; Not Active = under 50% inhibition at 10 µM
# [8] = molecular target: T3, Alpha-1B adrenergic receptor (Rattus norvegicus, UniProt P15823); experiment: DRUGMATRIX: Alpha-1B adrenergic receptor radioligand binding (ligand: prazosin); format: cell membranes, Wistar, Liver, Membrane; details: Not Active = under 50% inhibition at 10 µM
# T3 sequence (P15823 whole entry): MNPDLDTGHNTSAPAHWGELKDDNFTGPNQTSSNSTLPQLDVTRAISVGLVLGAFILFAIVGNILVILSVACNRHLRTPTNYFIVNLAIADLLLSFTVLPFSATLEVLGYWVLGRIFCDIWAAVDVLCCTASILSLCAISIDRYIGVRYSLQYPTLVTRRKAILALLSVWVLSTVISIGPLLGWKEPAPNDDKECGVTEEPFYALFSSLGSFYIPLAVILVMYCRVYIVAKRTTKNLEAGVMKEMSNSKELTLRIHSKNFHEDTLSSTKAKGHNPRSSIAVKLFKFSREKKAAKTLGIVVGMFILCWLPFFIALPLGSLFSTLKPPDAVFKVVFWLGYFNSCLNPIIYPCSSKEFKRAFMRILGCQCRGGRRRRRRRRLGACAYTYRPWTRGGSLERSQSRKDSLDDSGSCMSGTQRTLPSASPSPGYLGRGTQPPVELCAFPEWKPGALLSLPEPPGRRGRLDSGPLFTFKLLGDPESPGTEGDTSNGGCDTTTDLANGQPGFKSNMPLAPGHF
# Cathepsin G = molecular target: T4, Cathepsin G (Homo sapiens, UniProt P08311); format: tissue-based; details: neutrophil
# T4 sequence (P08311 whole entry): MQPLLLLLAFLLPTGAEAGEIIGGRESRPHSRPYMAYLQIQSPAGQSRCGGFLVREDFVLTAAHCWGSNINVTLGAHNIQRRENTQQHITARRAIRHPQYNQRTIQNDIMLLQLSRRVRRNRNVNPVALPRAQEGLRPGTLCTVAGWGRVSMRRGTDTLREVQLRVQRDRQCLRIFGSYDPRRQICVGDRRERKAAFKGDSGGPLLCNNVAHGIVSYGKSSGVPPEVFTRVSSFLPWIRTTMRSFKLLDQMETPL
# D(1A) dopamine receptor = D(1A) dopamine receptor (Homo sapiens, UniProt P21728); experiment: DRUGMATRIX: Dopamine D1 radioligand binding (ligand: [3H] SCH-23390); format: cell membranes, CHO, Membrane; details: cho; Not Active = under 50% inhibition at 10 µM
# Chain of D(1A) dopamine receptor (P21728 whole entry): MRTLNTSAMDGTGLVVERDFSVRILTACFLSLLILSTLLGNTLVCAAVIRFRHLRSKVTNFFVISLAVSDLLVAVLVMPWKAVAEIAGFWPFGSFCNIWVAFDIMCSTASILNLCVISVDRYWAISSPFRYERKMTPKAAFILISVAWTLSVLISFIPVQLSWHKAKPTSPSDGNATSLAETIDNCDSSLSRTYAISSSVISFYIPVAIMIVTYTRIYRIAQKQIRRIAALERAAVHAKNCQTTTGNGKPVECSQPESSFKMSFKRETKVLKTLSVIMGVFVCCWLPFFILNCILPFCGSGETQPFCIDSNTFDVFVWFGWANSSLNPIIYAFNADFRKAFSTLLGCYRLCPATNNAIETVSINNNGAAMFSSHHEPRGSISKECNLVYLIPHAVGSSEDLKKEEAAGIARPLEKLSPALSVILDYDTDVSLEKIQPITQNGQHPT
# Chain of Matrix metalloproteinase-9 (P14780 whole entry): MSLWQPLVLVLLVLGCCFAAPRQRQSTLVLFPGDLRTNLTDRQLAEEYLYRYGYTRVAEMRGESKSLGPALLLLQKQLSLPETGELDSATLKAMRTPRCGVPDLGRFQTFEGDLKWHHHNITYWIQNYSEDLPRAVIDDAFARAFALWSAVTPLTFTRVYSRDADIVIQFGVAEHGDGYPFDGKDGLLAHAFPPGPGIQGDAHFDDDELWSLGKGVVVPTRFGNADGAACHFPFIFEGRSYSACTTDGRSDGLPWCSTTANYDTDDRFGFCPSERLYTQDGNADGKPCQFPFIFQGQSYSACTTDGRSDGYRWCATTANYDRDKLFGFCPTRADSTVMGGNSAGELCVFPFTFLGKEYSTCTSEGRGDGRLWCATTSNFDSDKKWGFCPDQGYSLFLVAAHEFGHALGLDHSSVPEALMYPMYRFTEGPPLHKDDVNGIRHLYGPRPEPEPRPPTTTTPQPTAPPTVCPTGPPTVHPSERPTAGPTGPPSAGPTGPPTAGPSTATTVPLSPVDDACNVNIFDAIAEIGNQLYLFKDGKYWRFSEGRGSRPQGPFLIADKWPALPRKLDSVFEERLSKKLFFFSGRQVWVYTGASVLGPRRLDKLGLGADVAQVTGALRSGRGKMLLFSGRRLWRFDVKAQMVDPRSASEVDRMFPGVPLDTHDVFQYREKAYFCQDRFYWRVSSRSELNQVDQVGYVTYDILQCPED
# Chain of Epidermal growth factor receptor (P00533 whole entry): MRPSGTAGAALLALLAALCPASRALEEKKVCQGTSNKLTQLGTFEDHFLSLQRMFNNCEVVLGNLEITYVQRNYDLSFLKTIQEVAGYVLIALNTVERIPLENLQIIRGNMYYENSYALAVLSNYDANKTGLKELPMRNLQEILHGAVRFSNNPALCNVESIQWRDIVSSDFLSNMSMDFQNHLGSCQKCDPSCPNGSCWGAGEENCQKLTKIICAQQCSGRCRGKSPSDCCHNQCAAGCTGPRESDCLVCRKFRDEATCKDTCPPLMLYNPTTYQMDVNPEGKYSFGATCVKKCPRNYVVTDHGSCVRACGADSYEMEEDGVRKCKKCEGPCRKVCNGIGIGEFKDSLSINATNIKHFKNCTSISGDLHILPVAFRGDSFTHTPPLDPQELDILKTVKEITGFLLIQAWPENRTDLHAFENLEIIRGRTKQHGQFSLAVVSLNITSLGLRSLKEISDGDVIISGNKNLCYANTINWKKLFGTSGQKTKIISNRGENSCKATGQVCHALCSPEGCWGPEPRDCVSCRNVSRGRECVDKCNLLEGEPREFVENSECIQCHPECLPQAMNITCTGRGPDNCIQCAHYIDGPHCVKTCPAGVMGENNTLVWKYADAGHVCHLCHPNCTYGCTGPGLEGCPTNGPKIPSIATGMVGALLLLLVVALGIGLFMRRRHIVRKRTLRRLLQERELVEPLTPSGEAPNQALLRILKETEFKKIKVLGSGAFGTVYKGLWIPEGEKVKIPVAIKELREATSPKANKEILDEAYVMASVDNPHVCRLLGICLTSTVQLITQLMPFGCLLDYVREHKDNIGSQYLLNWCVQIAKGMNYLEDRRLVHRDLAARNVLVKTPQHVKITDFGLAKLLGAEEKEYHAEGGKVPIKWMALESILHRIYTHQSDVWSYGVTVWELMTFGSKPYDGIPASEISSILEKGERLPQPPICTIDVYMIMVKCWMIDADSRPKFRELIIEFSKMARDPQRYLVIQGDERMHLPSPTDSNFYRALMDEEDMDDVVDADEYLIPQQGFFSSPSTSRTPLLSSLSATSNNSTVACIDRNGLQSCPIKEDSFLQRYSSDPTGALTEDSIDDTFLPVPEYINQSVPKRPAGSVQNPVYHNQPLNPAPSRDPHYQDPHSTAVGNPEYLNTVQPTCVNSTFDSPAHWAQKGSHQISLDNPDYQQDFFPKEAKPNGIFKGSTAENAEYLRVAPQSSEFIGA
Structure (SMILES),IC50 [1],IC50 [2],Ki [2],IC50 [3],IC50 ([4]; insect cells),IC50 [5],IC50 [6],IC50 [7],Ki [7],IC50 (Cathepsin G),IC50 (D(1A) dopamine receptor),IC50 [8],further results
CC(CCc1ccccc1)NCC(O)c1ccc(O)c(C(N)=O)c1 (centres undefined) [LABETALOL],Not Active,Not Active,Not Active,Not Active,Not Active,Not Active,Not Active,Not Active,Not Active,Not Active,Not Active,–,IC50 ([8]; read-out: IC50): 583 nM; Ki ([8]; read-out: Ki): 323 nM
CN(N=O)C(=O)N[C@@H](C=O)[C@@H](O)[C@H](O)[C@H](O)CO [STREPTOZOCIN],Not Active,Not Active,Not Active,Not Active,Not Active,Not Active,Not Active,Not Active,Not Active,Not Active,Not Active,Not Active,–
Nc1nnc(-c2cccc(Cl)c2Cl)c(N)n1 [LAMOTRIGINE],Not Active,Not Active,Not Active,Not Active,Not Active,Not Active,Not Active,Not Active,Not Active,Not Active,Not Active,Not Active,–
CC(C)(C)NCC(O)c1cc(O)cc(O)c1 (centres undefined) [TERBUTALINE],Not Active,Not Active,Not Active,Not Active,Not Active,Not Active,Not Active,Not Active,Not Active,Not Active,Not Active,Not Active,–
O=[N+]([O-])c1cc([As](=O)(O)O)ccc1O [ROXARSONE],Not Active,Not Active,Not Active,Not Active,Not Active,Not Active,Not Active,Not Active,Not Active,Not Active,Not Active,Not Active,Ki [1]: Not Active; Ki [3]: Not Active; Ki ([4]; insect cells): Not Active; Ki [5]: Not Active; Ki [6]: Not Active; Ki [8]: Not Active; Ki (Cathepsin G): Not Active; Ki (D(1A) dopamine receptor): Not Active
CC(C)(C)NC(=O)[C@@H]1CN(Cc2cccnc2)CCN1C[C@@H](O)C[C@@H](Cc1ccccc1)C(=O)N[C@H]1c2ccccc2C[C@H]1O.O,Not Active,Not Active,Not Active,Not Active,Not Active,Not Active,Not Active,Not Active,Not Active,Not Active,Not Active,Not Active,–
Nc1ccc(S(N)(=O)=O)cc1 [SULFANILAMIDE],Not Active,Not Active,Not Active,Not Active,Not Active,Not Active,Not Active,Not Active,Not Active,Not Active,Not Active,Not Active,–
Cc1ncc([N+](=O)[O-])n1CC(C)O (centres undefined) [SECNIDAZOLE],Not Active,Not Active,Not Active,Not Active,Not Active,Not Active,Not Active,Not Active,Not Active,Not Active,Not Active,Not Active,–
Oc1c(I)cc(I)c2cccnc12 [IODOQUINOL],Not Active,Not Active,Not Active,Not Active,–,Not Active,Not Active,Not Active,Not Active,Not Active,Not Active,Not Active,IC50 ([4]; read-out: IC50): 1890 nM
NNC(=O)c1ccncc1 [ISONIAZID],Not Active,Not Active,Not Active,Not Active,Not Active,Not Active,Not Active,Not Active,Not Active,Not Active,Not Active,Not Active,–
